Assay results published in patent US20240246940A1, “HETEROARYL DERIVATIVE COMPOUND AND USE THEREOF” (VORONOI INC., priority 2021, published 2024).

What was measured:
[1] = tested on: SK-BR-3 cells (HER2 overexpressing cell line); experiment: SK-BR-3 cell proliferation inhibitory activity (CellTiter-Glo, 120 hours); assay type: cell-based; details: Homo sapiens
Method: (§1) To evaluate the cell proliferation inhibitory activity of the compound according to the present invention on HER2 and EGFR kinases, the following method was performed using HER2 overexpressing cell lines (SK-BR-3, BT-474, and N-87) and EGFR expressing cell line (HaCaT).
(§2) McCOY'S 5A supplemented with 10% FBS was used for SK-BR-3 cells, RPMI-1640 medium supplemented with 20% FBS was used for BT-474 cancer cells, and RPMI-1640 medium supplemented with 10% FBS was used for N-87 cancer cells. DMEM supplemented with 10% FBS was used for HaCaT cells.
(§3) For SK-BR-3 cells, 5000 cells were aliquoted into each well of a white clear bottom 96 well plate (Corning) 48 hours before treatment with the compounds of Examples. For BT-474 cells, 5000 cells were aliquoted into each well of a white clear bottom 96 well plate (Corning) 48 hours before treatment with the compounds of Examples. For N-87 cells, 5000 cells were aliquoted into each well of a white clear bottom 96 well plate (Corning) 24 hours before treatment with the compounds of Examples. For HaCaT cells, 3000 cells were aliquoted into each well of a white clear bottom 96 well plate (Corning) 24 hours before treatment with the compounds of Examples. For SK-BR-3 cells and BT-474 cells, the compounds of Examples were diluted in dimethyl sulfoxide (three-fold dilution, a total of 11 concentrations) and injected each in an amount of 1 μl to a final concentration of 0.2 nM to 10 μM. For N-87 cells, the compounds of Examples were diluted in dimethyl sulfoxide (five-fold dilution, a total of 11 concentrations) and injected each in an amount of 0.5 μl to a final concentration of […] to 5 μM. For HaCaT cells, the compounds of Examples were diluted in dimethyl sulfoxide (three-fold dilution, a total of 11 concentrations) and injected each in an amount of 0.5 μl to a final concentration of 0.8 nM to 45 μM. For the measurement of living cells, the cells were stored at room temperature for 10 minutes using CellTiter-Glo cell viability reagent (Promega) after a certain period of time (SK-BR-3: 120 hours, BT-474: 120 hours, N-87: 72 hours, and HaCaT: 72 hours) post treatment with the compounds of Examples, and the luminescence intensity thereof was measured using a reader (SynergyNeo, Biotek). Each test was repeated three times.
(§4) The result values were calculated as a cell growth rate (%) compared to those of the control group. A graph was created using the GraphPad Prism version 5.0 program, and GI50 values were calculated.

[2] = tested on: HaCaT cells (EGFR expressing cell line); experiment: HaCaT cell proliferation inhibitory activity (CellTiter-Glo, 72 hours); assay type: cell-based; details: Homo sapiens
Method: as §1, §2, §3, §4

| SMILES | GI50 [1] [nM] | GI50 [2] [nM] |
| --- | --- | --- |
| C=CC(=O)N1CC(Oc2cc3c(Nc4cc(-c5ccc(F)c(F)c5)ccc4OC)ncnc3cc2OC)C1 [Example 29, 1-(3-((4-((3′,4′-difluoro-4-methoxy-[1,1′-biphenyl]-3-yl)amino)-7-methoxy-quinazolin-6-yl)oxy)azetidin-1-yl)prop-2-en-1-one] | ≤ 150 | ≤ 150 |
| C=CC(=O)N1CC(Oc2cc3c(Nc4cc(-c5ccc6ncnn6c5)ccc4OC)ncnc3cc2OC)C1 [Example 31, 1-(3-((4-((5-([1,2,4]triazolo [1,5-a]pyridin-6-yl)-2-methoxyphenyl)amino)-7-methoxy-quinazolin-6-yl)oxy)azetidin-1-yl)prop-2-en-1-one] | 150 to 1000 | > 1000 |
| C=CC(=O)N1CC(Oc2cc3c(Nc4cc(-c5ccc6ccn(C)c6c5)ccc4OC)ncnc3cc2OC)C1 [Example 34, 1-(3-((7-methoxy-4-((2-methoxy-5-(1-methyl-1H-indol-6-yl)phenyl)amino)quinazolin-6-yl)oxy)azetidin-1-yl)prop-2-en-1-one] | > 1000 | 150 to 1000 |
| C=CC(=O)N1CC(Oc2cc3c(Nc4cc(-c5cccn6ccnc56)ccc4OC)ncnc3cc2OC)C1 [Example 35, 1-(3-((4-((5-(imidazo[1,2-a]pyridin-8-yl)-2-methoxyphenyl)amino)-7-methoxy-quinazolin-6-yl)oxy)azetidin-1-yl)prop-2-en-1-one] | ≤ 150 | 150 to 1000 |
| C=CC(=O)N1CC(Oc2cc3c(Nc4cc(-c5cccc6ncsc56)ccc4OC)ncnc3cc2OC)C1 [Example 36, 1-(3-((4-((5-(benzo[d]thiazol-7-yl)-2-methoxyphenyl)amino)-7-methoxy-quinazolin-6-yl)oxy)azetidin-1-yl)prop-2-en-1-one] | 150 to 1000 | 150 to 1000 |
| C=CC(=O)N1CC(Oc2cc3c(Nc4cc(-c5cnn6cccnc56)ccc4OC)ncnc3cc2OC)C1 [Example 39, 1-(3-((7-methoxy-4-((2-methoxy-5-(pyrazolo[1,5-a]pyrimidin-3-yl)phenyl)amino)quinazolin-6-yl)oxy)azetidin-1-yl)prop-2-en-1-one] | 150 to 1000 | 150 to 1000 |
| C=CC(=O)N1CC(Oc2cc3c(Nc4cc(-c5coc6ccccc56)ccc4OC)ncnc3cc2OC)C1 [Example 40, 1-(3-((4-((5-(benzofuran-3-yl)-2-methoxyphenyl)amino)-7-methoxy-quinazolin-6-yl)oxy)azetidin-1-yl)prop-2-en-1-one] | 150 to 1000 | ≤ 150 |
| C=CC(=O)N1CC(Oc2cc3c(Nc4cc(-c5csc6ccccc56)ccc4OC)ncnc3cc2OC)C1 [Example 41, 1-(3-((4-((5-(benzo[b]thiophen-3-yl)-2-methoxyphenyl)amino)-7-methoxy-quinazolin-6-yl)oxy)azetidin-1-yl)prop-2-en-1-one] | ≤ 150 | ≤ 150 |
| C=CC(=O)N1CC(Oc2cc3c(Nc4cc(-c5ccoc5C)ccc4OC)ncnc3cc2OC)C1 [Example 51, 1-(3-((7-methoxy-4-((2-methoxy-5-(2-methylfuran-3-yl)phenyl)amino)quinazolin-6-yl)oxy)azetidin-1-yl)prop-2-en-1-one] | ≤ 150 | ≤ 150 |
| C=CC(=O)N1CC(Oc2cc3c(Nc4cc(-c5cccs5)c(C)cc4OC)ncnc3cc2OC)C1 [Example 52, 1-(3-((7-methoxy-4-((2-methoxy-4-methyl-5-(thiophen-2-yl)phenyl)amino)quinazolin-6-yl)oxy)azetidin-1-yl)prop-2-en-1-one] | ≤ 150 | ≤ 150 |
| C=CC(=O)N1CC(Oc2cc3c(Nc4cc(-c5cccs5)ccc4OCC)ncnc3cc2OC)C1 [Example 54, 1-(3-((4-((2-ethoxy-5-(thiophen-2-yl)phenyl)amino)-7-methoxy-quinazolin-6-yl)oxy)azetidin-1-yl)prop-2-en-1-one] | ≤ 150 | ≤ 150 |
| C=CC(=O)N1CC(Oc2cc3c(Nc4cc(-c5ccco5)ccc4OCC)ncnc3cc2OC)C1 [Example 55, 1-(3-((4-((2-ethoxy-5-(furan-2-yl)phenyl)amino)-7-methoxy-quinazolin-6-yl)oxy)azetidin-1-yl)prop-2-en-1-one] | ≤ 150 | ≤ 150 |
| C=CC(=O)N1CC(Oc2cc3c(Nc4cc(-c5ccn6ncnc6c5)ccc4OCC)ncnc3cc2OC)C1 [Example 56, 1-(3-((4-((5-([1,2,4]triazolo [1,5-a]pyridin-7-yl)-2-ethoxyphenyl)amino)-7-methoxy-quinazolin-6-yl)oxy)azetidin-1-yl)prop-2-en-1-one] | 150 to 1000 | > 1000 |
| C=CC(=O)N1CC(Oc2cc3c(Nc4cc(-c5ccc6occc6c5)ccc4OCC)ncnc3cc2OC)C1 [Example 57, 1-(3-((4-((5-(benzofuran-5-yl)-2-ethoxyphenyl)amino)-7-methoxy-quinazolin-6-yl)oxy)azetidin-1-yl)prop-2-en-1-one] | 150 to 1000 | 150 to 1000 |
| C=CC(=O)N1CCC(Oc2cc3c(Nc4cc(-c5cccnc5)ccc4OC)ncnc3cc2OC)C1 (centres unmarked) [Example 59, 1-(3-((7-methoxy-4-((2-methoxy-5-(pyridin-3-yl)phenyl)amino)quinazolin-6-yl)oxy)pyrrolidin-1-yl)prop-2-en-1-one] | 150 to 1000 | > 1000 |
| C=CC(=O)N1CCC(Oc2cc3c(Nc4cc(-c5ccc(F)cc5)ccc4OC)ncnc3cc2OC)C1 (centres unmarked) [Example 60, 1-(3-((4-((4′-fluoro-4-methoxy-[1,1′-biphenyl]-3-yl)amino)-7-methoxy-quinazolin-6-yl)oxy)pyrrolidin-1-yl)prop-2-en-1-one] | ≤ 150 | 150 to 1000 |
| C=CC(=O)N1CCC(Oc2cc3c(Nc4cc(-c5ccnn5C)ccc4OC)ncnc3cc2OC)C1 (centres unmarked) [Example 61, 1-(3-((7-methoxy-4-((2-methoxy-5-(1-methyl-1H-pyrazol-5-yl)phenyl)amino)quinazolin-6-yl)oxy)pyrrolidin-1-yl)prop-2-en-1-one] | 150 to 1000 | > 1000 |
| C=CC(=O)N1CCC(Oc2cc3c(Nc4cc(-c5cccnc5)ccc4OC)ncnc3cc2OC)CC1 [Example 66, 1-(4-((7-methoxy-4-((2-methoxy-5-(pyridin-3-yl)phenyl)amino)quinazolin-6-yl)oxy)piperidin-1-yl)prop-2-en-1-one] | 150 to 1000 | 150 to 1000 |
| C=CC(=O)N1CCC(Oc2cc3c(Nc4cc(-c5cccn6ccnc56)ccc4OC)ncnc3cc2OC)CC1 [Example 70, 1-(4-((4-((5-(imidazo[1,2-a]pyridin-8-yl)-2-methoxyphenyl)amino)-7-methoxy-quinazolin-6-yl)oxy)piperidin-1-yl)prop-2-en-1-one] | 150 to 1000 | > 1000 |
| C=CC(=O)N1CCC(Oc2cc3c(Nc4cc(-c5ccc6occc6c5)ccc4OC)ncnc3cc2OC)CC1 [Example 71, 1-(4-((4-((5-(benzofuran-5-yl)-2-methoxyphenyl)amino)-7-methoxy-quinazolin-6-yl)oxy)piperidin-1-yl)prop-2-en-1-one] | 150 to 1000 | > 1000 |
| C=CC(=O)N1CCC(Oc2cc3c(Nc4cc(-c5coc6ccccc56)ccc4OC)ncnc3cc2OC)CC1 [Example 73, 1-(4-((4-((5-(benzofuran-3-yl)-2-methoxyphenyl)amino)-7-methoxy-quinazolin-6-yl)oxy)piperidin-1-yl)prop-2-en-1-one] | ≤ 150 | ≤ 150 |
| C=CC(=O)N1CCC(Oc2cc3c(Nc4cc(-c5ccnn5C)ccc4OC)ncnc3cc2OC)CC1 [Example 75, 1-(4-((7-methoxy-4-((2-methoxy-5-(1-methyl-1H-pyrazol-5-yl)phenyl)amino)quinazolin-6-yl)oxy)piperidin-1-yl)prop-2-en-1-one] | 150 to 1000 | > 1000 |
| C=CC(=O)N1CCC(Oc2cc3c(Nc4cc(-c5cncs5)ccc4OC)ncnc3cc2OC)CC1 [Example 77, 1-(4-((7-methoxy-4-((2-methoxy-5-(thiazol-5-yl)phenyl)amino)quinazolin-6-yl)oxy)piperidin-1-yl)prop-2-en-1-one] | 150 to 1000 | 150 to 1000 |
| C=CC(=O)N1CCC(Oc2cc3c(Nc4cc(-c5sccc5C)ccc4OC)ncnc3cc2OC)CC1 [Example 82, 1-(4-((7-methoxy-4-((2-methoxy-5-(3-methylthiophen-2-yl)phenyl)amino)quinazolin-6-yl)oxy)piperidin-1-yl)prop-2-en-1-one] | ≤ 150 | ≤ 150 |
| C=CC(=O)N1CCC(Oc2cc3c(Nc4cc(-c5cc(C)cs5)ccc4OC)ncnc3cc2OC)CC1 [Example 83, 1-(4-((7-methoxy-4-((2-methoxy-5-(4-methylthiophen-2-yl)phenyl)amino)quinazolin-6-yl)oxy)piperidin-1-yl)prop-2-en-1-one] | 150 to 1000 | 150 to 1000 |
